Measured values: patent US20260364081A1, “METHOD FOR PREVENTING OR TREATING ATTENTION DEFICIT HYPERACTIVITY DISORDER (ADHD) AND FOR PREPARING A COMPOUND OR SALT THEREOF” (ASTROGEN, INC., priority 2023, published 2026)
Structures can show the parent of a compound that is named as a salt. Where two headings read alike, the source gives them in different places.

Columns and labels:
[1] = Thermal stability test (content by HPLC, visual discoloration); format: physicochemical; settings: for Content at 0 weeks / remaining at 1344 h / Content after 8 weeks: HPLC; for Content at 0 weeks: start of storage at 40±2 °C and 75±5% RH; for remaining at 1344 h: solid, 75% rh, read-out: Content after 8 weeks; for remaining at 1344 h / Content after 8 weeks: 8 weeks at 40±2 °C and 75±5% RH, opaque glass vials; for Discoloration: visual, after 8 weeks at 40±2 °C and 75±5% RH; for Content after 8 weeks: 80640 min
Description: 8 mg each of the viloxazine hydrochloride of Comparative Examples 1 and 2, and the novel salts of (S)-viloxazine of Examples 6 to 16 were placed into opaque glass vials and stored at 40±2 °C and 75±5% RH. After 8 weeks, each sample was taken out, its content was analyzed by high-performance liquid chromatography (HPLC), and the presence of discoloration was visually confirmed (Table 2).

[2] = target: norepinephrine receptor (Homo sapiens, UniProt P23975); settings: read-out: norepinephrine reuptake inhibition IC50, HEK-293T cells stably expressing the norepinephrine receptor, 30 min drug incubation, 37 °C, 30 min kinetic fluorescence reading
Description: The norepinephrine reuptake ability in a cell line expressing the norepinephrine receptor was confirmed using a kit (Neurotransmitter Transporter Uptake Assay Kit, Molecular Devices) composed of a fluorescent material that mimics amine neurotransmitters and a masking dye.
First, HEK-293T cells stably expressing the norepinephrine receptor were seeded in a 96-well Black/Clear Bottom Plate to contain 6×10^4 cells in 100 μl of cell culture medium per well. After incubating for 20 hours in a 37 °C, 5% CO2 incubator to allow the cells to properly attach and stabilize on the plate, the cell culture medium was removed, and 100 μl of an HBSS+0.1% BSA with 20 mM HEPES aqueous solution in which a drug of a target concentration was dissolved was dispensed into each well. For the control group, 100 μl of a drug-free buffer solution (HBSS+0.1% BSA with 20 mM HEPES aqueous solution) was dispensed. The plate was incubated for 30 minutes in a 37 °C, 5% CO2 incubator to allow the drug to sufficiently react with the receptor.
Thereafter, fluorescence was measured for a total of 30 minutes in Kinetic reading mode at Ex/Em=440 nm/520 nm using a fluorescence plate reader (SpectraMax®). The measured fluorescence intensity value was converted into a value of “reuptake inhibition rate (%)” using the following formula, and then a dose-response curve was plotted through 4-parameter (Log) logistic regression, and the IC50 value for each drug was calculated and compared (FIGS. 4 and 5).

[3] = system: 5HT2B receptor; settings: background statement; cited from earlier work
[4] = background statement; cited from earlier work
[5] = system: norepinephrine reuptake; settings: background statement, cited from earlier work
[6] = system: dopamine; settings: background statement; cited from earlier work
[7] = system: attention-deficit/hyperactivity disorder (ADHD); settings: clinical trials, patients with ADHD, versus placebo; cited from earlier work
[8] = system: CYP2D6; settings: background statement; cited from earlier work
[9] = cited from earlier work
[10] = system: 5-HT2C receptor; settings: background statement; cited from earlier work

norepinephrine receptor, sequence (P23975 whole entry): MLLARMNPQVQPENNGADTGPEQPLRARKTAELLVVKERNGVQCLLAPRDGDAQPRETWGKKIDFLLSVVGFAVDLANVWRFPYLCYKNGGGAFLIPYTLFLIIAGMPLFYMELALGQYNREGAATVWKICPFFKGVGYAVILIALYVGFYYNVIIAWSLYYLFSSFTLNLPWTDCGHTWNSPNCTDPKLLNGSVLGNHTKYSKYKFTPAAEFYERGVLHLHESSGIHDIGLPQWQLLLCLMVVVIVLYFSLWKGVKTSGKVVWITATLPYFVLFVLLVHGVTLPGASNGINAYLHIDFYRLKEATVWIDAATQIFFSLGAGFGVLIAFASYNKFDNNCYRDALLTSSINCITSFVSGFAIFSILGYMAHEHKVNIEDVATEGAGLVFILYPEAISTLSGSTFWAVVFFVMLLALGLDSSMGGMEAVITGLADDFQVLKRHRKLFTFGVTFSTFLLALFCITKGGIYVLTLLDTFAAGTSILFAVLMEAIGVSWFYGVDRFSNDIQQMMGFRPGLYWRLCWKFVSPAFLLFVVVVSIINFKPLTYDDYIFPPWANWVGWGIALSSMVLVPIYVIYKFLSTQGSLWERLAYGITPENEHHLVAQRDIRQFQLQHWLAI

| SMILES | Content at 0 weeks [1] | IC50 [2] | Content after 8 weeks [1] | further results |
| --- | --- | --- | --- | --- |
| CCOc1ccccc1OCC1CNCCO1 (racemic) [Comparative Example 1, (R,S)-viloxazine hydrochloride] | 99.5% | 62.9 µM |  | remaining at 1344 h [1]: 98.7%; Discoloration ([1]; hydrochloride): discolored to an off-white color; activity at 5HT2B receptor [3]: 5HT2B receptor antagonist; route of excretion of metabolites [4]: majority of its metabolites are excreted through urine; norepinephrine reuptake inhibition (in words) ([5]; listed as Racemic viloxazine hydrochloride): selective inhibition of norepinephrine reuptake; norepinephrine reuptake inhibition (in words) ([5]; hydrochloride): selectively inhibits norepinephrine reuptake; effect on dopamine [6]: low effect on dopamine; clinical efficacy in ADHD symptoms [7]: showed improved symptoms compared to patients who took a placebo; metabolizing enzyme [8]: metabolized through the CYP2D6 enzyme; suicidal ideation or suicide risk ([9]; during initial treatment or dosage adjustment): increased risk of suicidal ideation or suicide; risk in patients with bipolar disorder ([9]; patients with bipolar disorder): risk of worsening symptoms in patients with bipolar disorder; most common side effects ([9]; patients): drowsiness, reduced appetite, fatigue, nausea, and insomnia; heart rate and blood pressure ([9]; some of the patients administered viloxazine HCl): increase in heart rate and blood pressure; risk of drug abuse, dependence, or withdrawal symptoms ([9]; upon treatment discontinuation): low risk of drug abuse, dependence, or withdrawal symptoms; activity at 5-HT2C receptor [10]: 5-HT2C receptor agonist |
| CCOc1ccccc1OC[C@H]1CNCCO1 [Comparative Example 2, (R)-viloxazine hydrochloride, reference compound] | 99.2% | 108 µM |  | remaining at 1344 h [1]: 98.1%; Discoloration ([1]; hydrochloride): discolored to an off-white color |
| CCOc1ccccc1OC[C@@H]1CNCCO1 [Example 6, (S)-viloxazine hydrochloride] |  |  |  | Content at 0 weeks ([1]; hydrochloride): 99.5%; remaining at 1344 h [1]: 99.2%; IC50 ([2]; hydrochloride): 22.5 µM |
| CCOc1ccccc1OC[C@@H]1CNCCO1 [Example 7, (S)-viloxazine sulfate] | 99.3% | 29.3 µM | 98.6% |  |
| CCOc1ccccc1OC[C@@H]1CNCCO1 [Example 8, (S)-viloxazine hydrobromide] |  |  |  | Content after 8 weeks ([1]; hydrobromide): 99.0%; Content at 0 weeks ([1]; hydrobromide): 99.2%; IC50 ([2]; hydrobromide): 38.6 µM |
| CCOc1ccccc1OC[C@@H]1CNCCO1 [Example 9, (S)-viloxazine nitrate] | 98.2% | 42 µM | 97.7% |  |
| CCOc1ccccc1OC[C@@H]1CNCCO1 [Example 10, (S)-viloxazine acetate] | 99.6% | 24.3 µM | 99.3% |  |
| CCOc1ccccc1OC[C@@H]1CNCCO1 [Example 11, (S)-viloxazine trifluoroacetate] | 99.0% | 33.6 µM | 98.5% |  |
| CCOc1ccccc1OC[C@@H]1CNCCO1 [Example 12, (S)-viloxazine oxalate] | 99.1% | 34.3 µM | 98.6% |  |

More lines, main results first:

| Content at 0 weeks [1] | IC50 [2] | Content after 8 weeks [1] | SMILES | further results |
| --- | --- | --- | --- | --- |
| 99.0% | 36.1 µM | 98.5% | CCOc1ccccc1OC[C@@H]1CNCCO1 [Example 13, (S)-viloxazine fumarate] |  |
| 99.1% | 28.8 µM | 98.5% | CCOc1ccccc1OC[C@@H]1CNCCO1 [Example 14, (S)-viloxazine maleate] |  |
| 99.0% | 40.1 µM | 98.6% | CCOc1ccccc1OC[C@@H]1CNCCO1 [Example 15, (S)-viloxazine citrate] |  |
| 98.0 → 98.0% |  | 98.0 → 98.0% | CCOc1ccccc1OC[C@@H]1CNCCO1 [Example 16, (S)-viloxazine methanesulfonate] |  |
